The values that follow come from paper PMC7828495, “Synthesis, Stability, and Antidiabetic Activity Evaluation of (−)-Epigallocatechin Gallate (EGCG) Palmitate Derived from Natural Tea Polyphenols” (Molecules, 2021).

The subject of one data set is Mouse. To be noted: cited from earlier work.
The subject of a further data set is human. The conditions noted are these: ref Material Safety Data Sheet (MSDS); cited from earlier work.
Details of data set [1]: method as in PMID 9177723. The conditions noted are these: rats, 56 mg of EGCG orally; cited from earlier work.
Data set [2] in a line: Storage stability of powder in open air. The conditions noted are these: room temperature, 60 d. Format: physicochemical. From the text:
To study the storage stability of EGCG and PEGCG powder, […] of the two powders were kept in the open air at room temperature, respectively. After 60 days, aliquots of the two powders were sampled and subjected to HPLC analysis, respectively. The HPLC condition was the same as Item 2.5.

Details of data set [3]: method as in PMID 9177723. The conditions noted are these: humans, single oral intake of 97 mg; cited from earlier work.
Another data set deals with T1, α-glucosidase (Saccharomyces cerevisiae, UniProt P53341).
T1 construct: purchased Sinopharm Group Chemical Reagent Co. (Shanghai, China)
Description: α-Glucosidase inhibition assay (PNPG substrate). It counts as biochemical. Here is the method:
(§1) All of the other solvents and chemicals used were obtained from Sinopharm Group Chemical Reagent Co., Ltd. (Shanghai, China) and were of analytical grade. Sodium phosphate buffer (PBS) was purchased from Solarbio Co. (Beijing, China) and was prepared to make a concentration of 0.01 M aqueous solution (pH 7.2).
The activity of α-glucosidase was determined in a 96-well plate based on 4-Nitrophenyl […]-D-glucopyranoside (PNPG) as a substrate.

A short description of data set [4]: pH stability in alkalescent condition (HPLC). Format: physicochemical. To be noted: ethanol/PBS 80:20, pH 7.2, 37 °C, open air, 1.3 mM. The protocol:
(§2) Since the intestine system is alkalescent, it is necessary to assess the stability of EGCG and PEGCG under this condition.
Equivalent molar concentrations (1.3 mM) of EGCG and PEGCG were incubated in Pyrex test tubes (20 × 1.6 cm, i.d.) in the open air at 37 °C, respectively, without any agitation. Aliquots (20 µL) of the incubation solution was periodically (1, 2, 5 h) sampled and subjected to HPLC analysis, respectively. HPLC condition was the same as Item 2.5.

Data set [5] can be described thus: Thermal stability (TG analysis). Format: physicochemical. The conditions noted are these: 30 to 400 °C, 10 °C/min, nitrogen. Here is the method:
The thermal stability behaviors of EGCG and PEGCG were investigated on a TG apparatus (SDT […], TA Instruments, New Castle, DE, USA). About 3.0 mg of each sample was used to perform the analysis by putting the powder on a TG pan. The sample was scanned from 30 to 400 °C with a heating rate of 10 °C/min under a nitrogen atmosphere.

Details of data set [6]: method as in PMID 16302765, PMID 12499265. The conditions noted are these: sodium phosphate buffer pH 7.4, 3 h; cited from earlier work.
The test system of data set [7] is porcine pancreatic α-amylase. Description: α-Amylase inhibition assay. Format: biochemical. The conditions noted are these: ratio of IC50 values versus EGCG. The protocol: as §1
The nature of the next data set: Solubility in PBS. It counts as physicochemical.
Text: as §2

The mark [8] stands for this setting: Mouse, acute toxicity, ref Material Safety Data Sheet (MSDS).

Where two headings read alike, the source gives them in different places.

T1 sequence (P53341 whole entry): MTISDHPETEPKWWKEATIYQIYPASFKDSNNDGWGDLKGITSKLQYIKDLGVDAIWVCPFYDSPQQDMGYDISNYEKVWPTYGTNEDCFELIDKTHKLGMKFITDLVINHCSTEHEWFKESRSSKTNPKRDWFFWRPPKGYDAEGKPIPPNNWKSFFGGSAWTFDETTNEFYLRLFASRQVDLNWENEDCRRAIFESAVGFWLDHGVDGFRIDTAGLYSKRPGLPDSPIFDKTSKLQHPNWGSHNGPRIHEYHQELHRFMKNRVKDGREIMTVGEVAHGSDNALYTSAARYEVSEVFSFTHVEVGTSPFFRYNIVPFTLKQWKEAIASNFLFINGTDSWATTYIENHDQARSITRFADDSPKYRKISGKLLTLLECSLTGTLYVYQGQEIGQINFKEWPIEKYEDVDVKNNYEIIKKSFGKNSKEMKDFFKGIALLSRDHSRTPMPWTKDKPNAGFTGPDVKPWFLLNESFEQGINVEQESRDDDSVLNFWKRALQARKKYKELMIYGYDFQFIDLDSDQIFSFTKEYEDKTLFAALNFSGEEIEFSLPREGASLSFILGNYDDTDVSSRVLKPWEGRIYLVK
Chain of porcine pancreatic α-amylase (P06278 30-512): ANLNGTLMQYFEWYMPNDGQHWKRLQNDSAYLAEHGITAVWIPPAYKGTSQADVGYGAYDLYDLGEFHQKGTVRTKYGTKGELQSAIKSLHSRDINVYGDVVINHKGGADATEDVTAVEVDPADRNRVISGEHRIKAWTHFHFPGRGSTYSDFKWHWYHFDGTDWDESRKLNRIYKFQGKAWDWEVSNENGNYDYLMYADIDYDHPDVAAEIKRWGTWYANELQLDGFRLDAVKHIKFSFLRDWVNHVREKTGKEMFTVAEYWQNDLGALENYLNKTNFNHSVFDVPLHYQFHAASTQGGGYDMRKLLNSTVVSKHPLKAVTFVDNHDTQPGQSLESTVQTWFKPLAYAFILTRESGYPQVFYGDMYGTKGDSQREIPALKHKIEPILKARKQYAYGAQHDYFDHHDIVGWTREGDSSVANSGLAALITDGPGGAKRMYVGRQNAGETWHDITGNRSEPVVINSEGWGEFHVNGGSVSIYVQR

For `CN(C)c1ccncc1` [4-dimethylaminopyridine (DMAP), 4-dimethylaminopyridine], in the data set on Mouse (setting [8]), the Acute toxicity grade result was “LD50 250 mg/kg, medium toxicity”. Further, in the data set with human, the “Harm to Human Health” value is listed as “Irritating to the eyes; eating poisonous”.

Take `O=C(O[C@@H]1Cc2c(O)cc(O)cc2O[C@@H]1c1cc(O)c(O)c(O)c1)c1cc(O)c(O)c(O)c1` [EGCG, (−)-Epigallocatechin gallate]: the “absorbed after oral dose” value in [1] is reported as 0.01%. Moreover, the remained after storage in data set [2] is recorded as 45%. Besides, the “absorbed after oral dose” value in [3] is reported as 0.32%. On α-glucosidase, this compound yielded a concentration for half-maximal inhibition (IC50) of 11.5 ± 0.02 µM. For the same compound, in data set [4], the “degraded / hydrolyzed after 1 h” value stood at 93% and the “degraded / hydrolyzed after 5 h” value is given as “utterly degraded”. Besides, the thermal decomposition temperature in [5] was 234.5 °C. In addition, the EGCG lost in [6] was 90%.

Turning to `CCCCCCCCCCCCCCCC(=O)Oc1c(O)cc([C@H]2Oc3cc(O)cc(O)c3C[C@H]2OC(=O)c2cc(O)c(O)c(O)c2)cc1O` [PEGCG, 4′-O-palmitoyl EGCG], the remained after storage in [2] is 78%. The “α-amylase inhibitory activity relative to EGCG” value in data set [7] amounted to 4.5 times. Moreover, the “solubility in PBS” value in the data set “Solubility in PBS” was “insoluble in PBS”. In addition, the IC50 on α-glucosidase (37 °C, PNPG substrate, read-out: IC50 for α-Glucosidase) was 0.22 ± 0.03 µM. Besides, the “α-glucosidase inhibitory activity relative to EGCG” value at α-glucosidase (ratio of IC50 values versus EGCG) came to 52 times. Moreover, on α-glucosidase (ratio of IC50 values versus acarbose), the “α-glucosidase inhibitory activity relative to acarbose” value worked out at 0.68 times. Further, in [4], the “degraded / hydrolyzed after 1 h” value was “most of the PEGCG was hydrolyzed to EGCG and its dimers”; the “degraded / hydrolyzed after 5 h” value stood at 100%. In data set [5], this compound came in with a thermal decomposition temperature of 311.19 °C.

`c1ccncc1` [Pyridine]: in the data set with Mouse (mouse, in vivo), the Acute toxicity grade entry was “LD50 1580 mg/kg, mild toxicity” and the LD50 entry is “LD50 1580 mg/kg, mild toxicity”. For the same compound, in the data set on human, the “Harm to Human Health” value was “Strong irritant; anesthetizes the central nervous system”.

On to `CC(=O)[O-].[Na+]` [Sodium acetate], for which, in the data set with Mouse (mouse, in vivo), the Acute toxicity grade result is recorded as “LD50 25,956 mg/kg, non-toxic” and the 50% lethal dose (LD50) entry is on record as “LD50 25,956 mg/kg, non-toxic”. The “Harm to Human Health” value with human is recorded as “None”.

Turning to `O=C([O-])[O-].[Na+].[Na+]` [Sodium carbonate], in the data set on human, the “Harm to Human Health” value was “Irritant and corrosive”.

On to `CCN(CC)CC` [Triethylamine], for which, in the data set with Mouse (setting [8]), the Acute toxicity grade entry is “medium toxicity”. In the data set with Mouse (mouse, in vivo), the LD50 is listed as 460 mg/kg. The “Harm to Human Health” value with human is on record as “strong irritant to the respiratory tract; after inhaling can cause pulmonary edema or even death”.
